Data published in the NIST ThermoML archive (doi:10.1016/j.jct.2018.05.029).
Several values for one entry are separate records, joined by “and”; a condition that tells them apart may be missing. Identical values can stand only once.

Cc1cc2ccccc2[nH]1 [2-methylindole]
Details | mass density | molar entropy [J/K/mol] | vapor or sublimation pressure
10 K, Crystal, Vacuum adiabatic calorimetry | – | 0.7816 | –
20 K, Crystal, Vacuum adiabatic calorimetry | – | 5.097 | –
30 K, Crystal, Vacuum adiabatic calorimetry | – | 11.88 | –
40 K, Crystal, Vacuum adiabatic calorimetry | – | 19.5 | –
50 K, Crystal, Vacuum adiabatic calorimetry | – | 27.26 | –
60 K, Crystal, Vacuum adiabatic calorimetry | – | 34.95 | –
70 K, Crystal, Vacuum adiabatic calorimetry | – | 42.45 | –
80 K, Crystal, Vacuum adiabatic calorimetry | – | 49.75 | –
90 K, Crystal, Vacuum adiabatic calorimetry | – | 56.85 | –
100 K, Crystal, Vacuum adiabatic calorimetry | – | 63.76 | –
120 K, Crystal, Vacuum adiabatic calorimetry | – | 77.12 | –
140 K, Crystal, Vacuum adiabatic calorimetry | – | 89.97 | –
160 K, Crystal, Vacuum adiabatic calorimetry | – | 102.47 | –
180 K, Crystal, Vacuum adiabatic calorimetry | – | 114.71 | –
200 K, Crystal, Vacuum adiabatic calorimetry | – | 126.76 | –
220 K, Crystal, Vacuum adiabatic calorimetry | – | 138.69 | –
240 K, Crystal, Vacuum adiabatic calorimetry | – | 150.54 | –
260 K, Crystal, Vacuum adiabatic calorimetry | – | 162.33 | –
280 K, Crystal, Vacuum adiabatic calorimetry | – | 174.1 | –
298.15 K, Crystal, Vacuum adiabatic calorimetry | – | 184.78 | –
298.15 K, Liquid, Vacuum adiabatic calorimetry | – | 224.56 | –
300 K, Crystal, Vacuum adiabatic calorimetry | – | 185.87 | –
300 K, Liquid, Vacuum adiabatic calorimetry | – | 225.95 | –
320 K, Crystal, Vacuum adiabatic calorimetry | – | 197.68 | –
320 K, Liquid, Vacuum adiabatic calorimetry | – | 240.78 | –
331.97 K, Crystal, Vacuum adiabatic calorimetry | – | 204.77 | –
331.97 K, Liquid, Vacuum adiabatic calorimetry | – | 249.48 | –
339.98 K, Liquid, Inclined piston gauge | – | – | 0.022 kPa
339.99 K, Liquid, Inclined piston gauge | – | – | 0.022 kPa
340 K, Liquid, Vacuum adiabatic calorimetry | – | 255.25 | –
349.98 K, Liquid, Inclined piston gauge | – | – | 0.0439 kPa
359.98 K, Liquid, Inclined piston gauge | – | – | 0.0849 kPa
360 K, Liquid, Vacuum adiabatic calorimetry | – | 269.41 | –
369.98 K, Liquid, Inclined piston gauge | – | – | 0.1565 kPa and 0.1564 kPa
379.98 K, Liquid, Inclined piston gauge | – | – | 0.2769 kPa
380 K, Liquid, Vacuum adiabatic calorimetry | – | 283.28 | –
389.98 K, Liquid, Inclined piston gauge | – | – | 0.4731 kPa
399.97 K, Liquid, Inclined piston gauge | – | – | 0.7822 kPa
400 K, Liquid, Vacuum adiabatic calorimetry | – | 296.88 | –
409.97 K, Liquid, Inclined piston gauge | – | – | 1.255 kPa
419.96 K, Liquid, Inclined piston gauge | – | – | 1.958 kPa
420 K, Liquid, Vacuum adiabatic calorimetry | – | 310.21 | –
424.96 K, Liquid, Inclined piston gauge | – | – | 2.423 kPa
424.97 K, Liquid, Inclined piston gauge | – | – | 2.423 kPa
427.25 K, Liquid, Twin ebulliometer | – | – | 2.666 kPa
429.96 K, Liquid, Inclined piston gauge | – | – | 2.979 kPa
437.34 K, Liquid, Twin ebulliometer | – | – | 4 kPa
440 K, Liquid, Vacuum adiabatic calorimetry | – | 323.28 | –
444.87 K, Liquid, Twin ebulliometer | – | – | 5.333 kPa
456.04 K, Liquid, Twin ebulliometer | – | – | 7.999 kPa
460 K, Liquid, Small sample (50 mg) DSC | – | 336.12 | –
464.4 K, Liquid, Twin ebulliometer | – | – | 10.67 kPa
471.16 K, Liquid, Twin ebulliometer | – | – | 13.33 kPa
478.17 K, Liquid, Twin ebulliometer | – | – | 16.66 kPa
480 K, Liquid, Small sample (50 mg) DSC | – | 348.73 | –
483.99 K, Liquid, Twin ebulliometer | – | – | 19.93 kPa
491.65 K, Liquid, Twin ebulliometer | – | – | 25.02 kPa and 25.02 kPa
499.35 K, Liquid, Twin ebulliometer | – | – | 31.18 kPa
500 K, Liquid, Small sample (50 mg) DSC | – | 361.11 | –
507.08 K, Liquid, Twin ebulliometer | – | – | 38.56 kPa
514.86 K, Liquid, Twin ebulliometer | – | – | 47.38 kPa
520 K, Liquid, Small sample (50 mg) DSC | – | 373.29 | –
522.68 K, Liquid, Twin ebulliometer | – | – | 57.82 kPa
530.55 K, Liquid, Twin ebulliometer | – | – | 70.12 kPa
538.45 K, Liquid, Twin ebulliometer | – | – | 84.53 kPa
540 K, Liquid, Small sample (50 mg) DSC | – | 385.27 | –
546.4 K, Liquid, Twin ebulliometer | – | – | 101.33 kPa
554.39 K, Liquid, Twin ebulliometer | – | – | 120.79 kPa
560 K, Liquid, Small sample (50 mg) DSC | – | 397.05 | –
562.43 K, Liquid, Twin ebulliometer | – | – | 143.25 kPa
570.5 K, Liquid, Twin ebulliometer | – | – | 169.02 kPa
578.62 K, Liquid, Twin ebulliometer | – | – | 198.49 kPa
580 K, Liquid, Small sample (50 mg) DSC | – | 408.64 | –
586.77 K, Liquid, Twin ebulliometer | – | – | 232.02 kPa
594.97 K, Liquid, Twin ebulliometer | – | – | 270.02 kPa
600 K, Liquid, Small sample (50 mg) DSC | – | 420.05 | –
620 K, Liquid, Small sample (50 mg) DSC | – | 431.28 | –
640 K, Liquid, Small sample (50 mg) DSC | – | 442.34 | –
660 K, Liquid, Small sample (50 mg) DSC | – | 453.23 | –
680 K, Liquid, Small sample (50 mg) DSC | – | 463.97 | –
700 K, Liquid, Small sample (50 mg) DSC | – | 474.57 | –
788.8 K, Gas, DSC | 176.5 kg/m3 | – | –
795.1 K, Liquid, DSC | 470.4 kg/m3 | – | –
800.7 K, Liquid, DSC | 433.9 kg/m3 | – | –
802.9 K, Liquid, DSC | 399.3 kg/m3 | – | –
803 K, Gas, DSC | 183.3 kg/m3 | – | –
803.6 K, Liquid, DSC | 360.9 kg/m3 | – | –
807 K, Gas, DSC | 238.4 kg/m3 | – | –
809.2 K, Gas, DSC | 264.7 kg/m3 | – | –
809.6 K, Gas, DSC | 268.7 kg/m3 and 299.5 kg/m3 | – | –

101.33 kPa, Liquid
Details | mass density [kg/m3]
298.15 K, From volume and mass of a pressed pellet | 1070
342 K, Pycnometric method | 1020

Details | Triple point temperature [K]
Crystal, Adiabatic calorimetry | 331.97
